Test results taken from patent publication US8178688B2, “Benzamidine derivatives, process for the preparation thereof and pharmaceutical composition comprising the same” (Dong Wha Pharmaceutical Co., Ltd., priority 2004, dated 2012).

Tested on: osteoclast differentiation
Assay: Inhibitory effects on osteoclast differentiation (co-culture of bone marrow cells with osteoblast, TRAP staining)
Type: cell-based, mice
Conditions: Mus musculus, Osteoclast, 168 h, read-out: % inhibitory activity on osteoclastogenesis
Procedure: The effect of benzamidine derivatives of the present invention on osteoclast proliferation and differentiation process was evaluated via co-culture with osteoblast.
Tibia and Femora were aseptically ectomized from male ddY mice of 6-8 weeks to harvest bone marrow cells by using a syringe (21G, Korea Green Cross).
The bone marrow cells were suspended in 5 mL α-MEM medium (Gibco BRL Co.) containing sodium bicarbonate (2.0 g/L), streptomycin (100 mg/L) and penicillin ([…]). The harvested cells were centrifuged at 600×g for 5 mins to collect the whole quantity. To remove the red blood cells within bone marrow cells, 3 mL of Tris HCl (0.83% NH4Cl, pH7.5) was added and well mixed. After centrifuging above cells, the numbers of bone marrow cells were counted and then, the bone marrow cells were immediately used for co-culture system with osteoblast.
The calvaria were aseptically ectomized from neonate ICR mice of 1˜2 days, washed with PBS solution and incubated with a mixture of enzyme solution (0.2% collagenase and 0.1% dispase) at 37° C. gentle shaker. This procedure was sequentially repeated (10, 10, 10, 20, 20 and 20 mins), and then the calvaria cells having the characteristics of osteoblast mostly released from III-VI digestion groups were collected and washed with the medium (serum-free α-MEM). The washed cells were cultivated in α-MEM medium containing 10% FBS for 2˜3 days. After subculturing, these cells were used for this experiment, and diluted to reach the concentration of 1×10^6 cell/mL for storage at −70° C.
Benzamidine derivatives of the present invention were dissolved in a sterile distilled water or ethanol to make desired concentrations following dilution. The final volume of specimen added to the medium was determined at the ratio of 1:1000.
Bone marrow cells prepared, in the above and osteoblast from calvaria were co-cultured for osteoclast differentiation. Both bone marrow cells (25,000 cells/cm^2) and osteoblast (10,000 cells/cm^2) were plated on a 96 well plate in α-MEM medium containing FBS with specimen, and then cultured with test materials for 7 days. Differentiation factors, such as dexamethasone (10^−7M) and vitamin D3 (10^−8M), were also continuously added to the medium from the first day of cultivation. The medium was changed with fresh media containing a mixture of specimens and differentiation factors every 2˜3 day.
TRAP was used as a marker to measure osteoclast in consideration of its characteristics showing a positive reaction to TRAP staining solution. TRAP staining solution was prepared in a manner that 5 mg of naphtol AS-MS phosphate (sigma N-4875), a substrate and 25 mg of coloring agent (Fast Red Violet LB salt) were dissolved in N,N-dimethylformamide (about 0.5 mL), 0.1N NaHCO3 buffer solution (50 mL) containing 50 mM tartaric acid was added, and the reaction mixture was stored at refrigerator prior to use.
After culturing the cells for 7 days, the medium was removed from the wells, the cells were once washed with PBS solution and fixed to PBS containing 10% formalin for 2˜5 mins. The cells were fixed again in a mixed solution of ethanol and acetone (1/1) for about 1 min, and dried off. The cells were further treated by TRAP staining solution for 15 mins and washed with PBS. The experimental results were measured by counting the number of osteoclasts with 3 or more nuclei showing TRAP-positive reaction under a microscopic examination. Each of tests was confirmed over three times for gaining more reliable data.
As shown in the following table 7, the inhibitory effect of each experimental group on the differentiation of osteoclast versus controls was expressed by inhibitory percentage value.

Question: `CCCCCc1nc(-c2ccc(OCCCCCOc3ccc(C(=N)NO)cc3)cc2)c(C(C)C)s1` [Example 28, N-hydroxy-4-(5-[4-(5-isopropyl-2-pentyl-1,3-thiazol-4-yl)phenoxy]pentoxy)-benzamidine] was tested. Which inhibition at 1 µM did it give?
Answer: The inhibition at 1 µM was 29.6%.

Question: `CN(CCN1CCOCC1)c1nc(-c2ccc(OCCCCCOc3ccc(C(=N)NO)cc3)cc2)c(C2CCCC2)s1` [Example 153, N-hydroxy-4-(5-[4-(5-cyclopentyl-2-[methyl-(2-morpholinoethyl)amino]-1,3-thiazol-4-yl)phenoxy]pentoxy)-benzamidine] was tested. Which inhibition at 1 µM did it give?
Answer: Its inhibition at 1 µM is 96.4%.

Same assay, conditions: Mus musculus, Osteoclast, 168 h; 1 m; co-culture of bone marrow cells and osteoblast, 7 days, TRAP-positive osteoclasts versus controls; read-out: % inhibitory activity on osteoclastogenesis

Question: `CCc1sc(N(CC)Cc2ccccc2)nc1-c1ccc(OCCCCCOc2ccc(C(=N)NO)cc2)cc1` [Example 135, N-hydroxy-4-(5-[4-(2-(benzyl-ethyl-amino)-5-ethyl-1,3-thiazol-4-yl)phenoxy]pentoxy)-benzamidine] was tested. Which inhibition at 1 µM did it give?
Answer: Its inhibition at 1 µM is 48.6%.

Question: With `CCNc1nc(-c2ccc(OCCCCCOc3ccc(C(=N)NO)cc3)cc2)cs1` [Example 84, N-hydroxy-4-(5-[4-(2-ethylamino-1,3-thiazol-4-yl)phenoxy]pentoxy)-benzamidine] as the compound, how does the inhibition at 1 µM read?
Answer: The inhibition at 1 µM was 100%.

Question: For `Cc1nc(-c2ccc(OCCCCCOc3ccc(C(=N)NO)cc3)cc2)c(CO)s1` [Example 75, N-hydroxy-4-(5-[4-(5-hydroxymethyl-2-methyl-1,3-thiazol-4-yl)phenoxy]pentoxy)-benzamidine], which inhibition at 1 µM is on record?
Answer: The inhibition at 1 µM was 40.2%.

Question: `Cc1nc(-c2ccc(OCCCCCNc3cccc(C(=N)NO)c3)cc2)c(C(C)C)s1` [Example 195, N-hydroxy-3-(5-[4-(5-isopropyl-2-methyl-thiazol-4-yl)-phenoxy]-pentylamino)-benzamidine] was tested. Which inhibition at 1 µM did it give?
Answer: Its inhibition at 1 µM is 42.3%.

Question: `CN(C)c1nc(-c2ccc(OCCCCCOc3ccc(C(=N)NO)cc3)cc2)c(CC2CCCC2)s1` [Example 163, N-hydroxy-4-(5-[4-(5-cyclopentylmethyl-2-dimethylamino-1,3-thiazol-4-yl)phenoxy]pentoxy)-benzamidine] was tested. Which inhibition at 1 µM did it give?
Answer: The inhibition at 1 µM was 88.1%.

Question: How did the inhibition at 1 µM turn out when `COCc1sc(C)nc1-c1ccc(OCCCCCOc2ccc(C(=N)NO)cc2)cc1` [Example 76, N-hydroxy-4-(5-[4-(5-methoxymethyl-2-methyl-1,3-thiazol-4-yl)phenoxy]pentoxy)-benzamidine] was run?
Answer: The inhibition at 1 µM was 99%.

Question: For `CCS(=O)(=O)N(C)c1nc(-c2ccc(OCCCCCOc3ccc(C(=N)NO)cc3)cc2)c(C(C)C)s1` [Example 142, N-hydroxy-4-(5-[4-(2-(ethanesulfonyl-methyl-amino)-5-isopropyl-1,3-thiazol-4-yl)phenoxy]pentoxy)-benzamidine], which inhibition at 1 µM is on record?
Answer: Its inhibition at 1 µM is 54.1%.

Question: For `CCN(Cc1ccccc1)c1nc(-c2ccc(OCCCCCOc3ccc(C(=N)NO)cc3)cc2)c(C)s1` [Example 127, N-hydroxy-4-(5-[4-(2-(benzyl-ethyl-amino)-5-methyl-1,3-thiazol-4-yl)phenoxy]pentoxy)-benzamidine], which inhibition at 1 µM is on record?
Answer: Its inhibition at 1 µM is 41.5%.

Question: With `N=C(NO)c1ccc(OCc2ccc(COc3ccc(-c4nc(C5CCCCC5)sc4CC4CCCC4)cc3)cc2)cc1` [Example 210, N-hydroxy-4-(4-[4-(5-cyclopentylmethyl-2-cyclohexyl-thiazol-4-yl)-phenoxymethyl]-benzyloxy)-benzamidine] as the compound, how does the inhibition at 1 µM read?
Answer: The inhibition at 1 µM was 68.8%.

Question: Which inhibition at 1 µM does the source give for `Cc1nc(-c2ccc(OCCCCCCOc3ccc(C(=N)NO)cc3)cc2)c(C(C)C)s1` [Example 211, N-hydroxy-4-(6-[4-(5-isopropyl-2-methyl-thiazol-4-yl)phenoxy]-hexyloxy)-benzamidine] here?
Answer: The inhibition at 1 µM was 44%.

Question: Which inhibition at 1 µM does the source give for `N=C(NO)c1ccc(OCCCCCOc2ccc(-c3nc(N)sc3C3CCCC3)cc2)cc1` [Example 81, N-hydroxy-4-(5-[4-(2-amino-5-cyclopentyl-1,3-thiazol-4-yl)phenoxy]pentoxy)-benzamidine] here?
Answer: Its inhibition at 1 µM is 29.5%.

Question: `CN(CCN1CCOCC1)c1nc(-c2ccc(OCCCCCOc3ccc(C(=N)NO)cc3)cc2)c(CC2CCCC2)s1` [Example 148, N-hydroxy-4-(5-[4-(5-cyclopentylmethyl-2-(methyl-(2-morpholinoethyl)amino)-1,3-thiazol-4-yl)phenoxy]pentoxy)-benzamidine] was tested. Which inhibition at 1 µM did it give?
Answer: Its inhibition at 1 µM is 90.1%.

Question: How did the inhibition at 1 µM turn out when `N=C(NO)c1ccc(OCCCCCOc2ccc(-c3nc(N4CCOCC4)sc3C3CCCC3)cc2)cc1` [Example 172, N-hydroxy-4-(5-[4-(5-cyclopentyl-2-morpholin-4-yl-1,3-thiazol-4-yl)phenoxy]pentoxy)-benzamidine] was run?
Answer: The inhibition at 1 µM was 87.8%.

Question: With `Cc1nc(-c2ccc(OCCNCCOc3ccc(C(=N)NO)cc3)cc2)c(C(C)C)s1` [Example 186, N-hydroxy-4-(2-[2-(4-(5-isopropyl-2-methyl-1,3-thiazol-4-yl)phenoxy)-ethylamino]-ethoxy)-benzamidine] as the compound, how does the inhibition at 1 µM read?
Answer: Its inhibition at 1 µM is 71%.

Question: Which inhibition at 1 µM does the source give for `N=C(NO)c1ccc(OCCCCCOc2ccc(-c3nc(NC(=O)c4cccnc4)sc3CC3CCCC3)cc2)cc1` [Example 89, N-hydroxy-4-(5-[4-(5-cyclopentylmethyl-2-(3-pyridylcarbonyl)amino-1,3-thiazol-4-yl)phenoxy]pentoxy)-benzamidine] here?
Answer: Its inhibition at 1 µM is 81.2%.

Question: With `Cc1sc(NC(=O)C(C)C)nc1-c1ccc(OCCCCCOc2ccc(C(=N)NO)cc2)cc1` [Example 69, N-hydroxy-4-(5-[4-(2-(isobutyryl)amino-5-methyl-1,3-thiazol-4-yl)phenoxy]pentoxy)-benzamidine] as the compound, how does the inhibition at 1 µM read?
Answer: Its inhibition at 1 µM is 99.6%.

Question: `CC(C)c1sc(CN)nc1-c1ccc(OCCCCCOc2ccc(C(=N)NO)cc2)cc1` [Example 73, N-hydroxy-4-(5-[4-(5-isopropyl-2-aminomethyl-1,3-thiazol-4-yl)phenoxy]pentoxy)-benzamidine] was tested. Which inhibition at 1 µM did it give?
Answer: Its inhibition at 1 µM is 54.2%.

Question: With `CCCCc1sc(N(C)CCN2CCOCC2)nc1-c1ccc(OCCCCCOc2ccc(C(=N)NO)cc2)cc1` [Example 144, N-hydroxy-4-(5-[4-(5-butyl-2-(methyl-(2-morpholinoethyl)amino)-1,3-thiazol-4-yl)phenoxy]pentoxy)-benzamidine] as the compound, how does the inhibition at 1 µM read?
Answer: The inhibition at 1 µM was 94.4%.

Same assay, conditions: Mus musculus, Osteoclast, 168 h; 1 μm; co-culture of bone marrow cells and osteoblast, 7 days, TRAP-positive osteoclasts versus controls; read-out: % inhibitory activity on osteoclastogenesis

Question: For `CCc1nc(-c2ccc(OCCCCCOc3ccc(C(=N)NO)cc3)cc2)cs1` [Example 4, N-hydroxy-4-(5-[4-(2-ethyl-1,3-thiazol-4-yl)phenoxy]pentoxy)-benzamidine], which inhibition at 1 µM is on record?
Answer: Its inhibition at 1 µM is 81.1%.

Question: How did the inhibition at 1 µM turn out when `CCCc1sc(C)nc1-c1ccc(OCCCCCOc2ccc(C(=N)NO)cc2)cc1` [Example 29, N-hydroxy-4-(5-[4-(2-methyl-5-propyl-1,3-thiazol-4-yl)phenoxy]pentoxy)-benzamidine] was run?
Answer: Its inhibition at 1 µM is 96.3%.

Question: Which inhibition at 1 µM does the source give for `Cc1nc(-c2ccc(OCCCCCOc3ccc(C(=N)NO)cc3)cc2)c(Cc2ccccc2)s1` [Example 38, N-hydroxy-4-(5-[4-(5-benzyl-2-methyl-1,3-thiazol-4-yl)phenoxy]pentoxy)-benzamidine] here?
Answer: Its inhibition at 1 µM is 56.8%.

Question: For `Cc1nc(-c2ccc(OCCCCCOc3ccc(C(=N)NO)cc3)cc2)c(CCCl)s1` [Example 42, N-hydroxy-4-(5-[4-(5-(2-chloro-ethyl)-2-methyl-1,3-thiazol-4-yl)phenoxy]pentoxy)-benzamidine], which inhibition at 1 µM is on record?
Answer: Its inhibition at 1 µM is 90.9%.

Question: With `CCc1sc(C)nc1-c1ccc(OCCCCCOc2ccc(C(=N)NO)cc2)cc1` [Example 17, N-hydroxy-4-(5-[4-(5-ethyl-2-methyl-1,3-thiazol-4-yl)phenoxy]pentoxy)-benzamidine] as the compound, how does the inhibition at 1 µM read?
Answer: Its inhibition at 1 µM is 59.1%.

Question: How did the inhibition at 1 µM turn out when `CC(C)c1sc(-c2cccnc2)nc1-c1ccc(OCCCCCOc2ccc(C(=N)NO)cc2)cc1` [Example 27, N-hydroxy-4-(5-[4-(5-isopropyl-2-pyridin-3-yl-1,3-thiazol-4-yl)phenoxy]pentoxy)-benzamidine] was run?
Answer: Its inhibition at 1 µM is 56.5%.

Same assay, conditions: co-culture of bone marrow cells and osteoblast, 7 days, TRAP-positive osteoclasts versus controls

Question: Which “% inhibitory activity on osteoclastogenesis” value does the source give for `Cc1nc(-c2ccc(OCCCCOc3ccc(C(=N)NO)c(F)c3)cc2)c(C(C)C)s1` [Example 207, N-hydroxy-2-fluoro-4-(5-[4-(5-isopropyl-2-methyl-thiazol-4-yl)-phenoxy]-butoxy)-benzamidine] here?
Answer: Its value is 14.4%.
